Reference: US20170305894A1, “PPAR AGONISTS, COMPOUNDS, PHARMACEUTICAL COMPOSITIONS, AND METHODS OF USE THEREOF” (priority 2014, published 2017)

Assays:
[1] = test system: C57BL6J mice, thermal injury to the TA; assay: Acute pharmacological activation of PPARδ in freeze burn (thermal) injury of the TA muscle; type: in vivo
Experimental: TA muscles were injured according to previously published methods with a few modifications (Brack et al., Science 317(5839):807-810 (2007)). A stainless steel 1 g weight (Mettler-Toledo) equilibrated to the temperature of dry ice was placed directly on the exposed TA for 10 seconds. Following the thermal injury, incision was closed using VetBond (3M). All injury procedures were performed on the left leg, and the right leg was used as control.
(Hamer et al., J Anat 200(Pt 1):69-79 (2002)). Sterile 1% w/v Evans Blue dye in PBS was intraperitoneally injected at 1% volume relative to the body mass of an animal. Seven hours after the injection, injured TA muscles were harvested and snap-frozen by isopentane quenching in liquid nitrogen. Frozen sections were cut in 10 μm thickness, fixed in ice-cold acetone, dipped in xylene and mounted with DPX. Proportion of the stained area over the total area was measured using ImageJ software.
50 mg/kg body weight of BrdU (Sigma) was injected intraperitoneally as solution of 10 mg/mL BrdU in saline. TA muscles were harvested at 7 days after injury and processed for paraffin sections as described above. BrdU incorporation was visualized using the BrdU Labeling and Detection Kit I (Roche) and BrdU+ nuclei were counted and represented as a proportion of total nuclei in a field.
Whole or partial tissues were homogenized by Polytron probe homogenizer in Trizol reagent (Invitrogen). Total RNA was extracted from the homogenates according to the manufacturer's protocol. One microgram of DNase-treated total RNA was reverse transcribed using Superscript II Reverse Transcriptase (Invitrogen) according to the manufacturer's instructions. cDNAs were diluted 1/40 with ddH2O and used as templates in RT-QPCR reactions with SYBRGreenER qPCR SuperMix detection system (Invitrogen). Samples were prepared in technical triplicates and relative mRNA levels were calculated by using the standard curve methodology and normalized against GAPDH mRNA levels in the same samples.

FGF1a promoter = assay: Luciferase reporter assay of FGF1a promoter co-transfected with PPARδ; type: cell-based; conditions: with or without the ligand
Description: FIGS. 3A-3G illustrate that PPARδ regulates FGF1a to promote micro-vascularization. *P<0.05; **P<0.01. All error bars are SEM. FIG. 3A provides immunofluorescence staining for CD31 on transverse sections of uninjured TA from WT and TG animals. FIG. 3B provides quantification of CD31 positive capillary number (n=4). FIG. 3C illustrates the FGF1a mRNA level in TA of WT and TG by QPCR (n=5). FIG. 3D provides a Western blot for FGF1. FIG. 3E provides immunofluorescence staining for CD31 positive capillaries on transverse sections of TA, 5 days after the injury (n=3). FIG. 3F provides quantification for CD31 positive capillaries on transverse sections of TA, 5 days after the injury (n=3). FIG. 3G provides luciferase reporter assays of FGF1a promoter co-transfected with PPARδ with or without the ligand, GW501516.
Increased vasculature is one of the hallmarks of oxidative myofibers, which facilitates introduction of immune cells and also supports increased number of satellite cells. TG animals show increased expression of FGF1 in TA muscle (FIG. 3D). Upon injury, TG animals maintain high expression of FGF1 expression (FIG. 3D). […] Furthermore, after the injury, TG animals show increased expression of CD31, which is indicative of increased vascularity (FIGS. 3E-F). […] Therefore, increased vascularity may contribute to the accelerated regenerative process observed in VP16-PPARδ animals.

Cc1cc(SCc2sc(-c3ccc(C(F)(F)F)cc3)nc2C)ccc1OCC(=O)O [GW501516]
initial inflammatory responses (inflammatory marker genes) ([1]; 12 hours after the injury, with or without ligand): similarly generated
expressions of inflammatory marker genes by QPCR ([1]; 3 days after the injury): significantly reduced
reduction in the proportion of stained area ([1]; 5 days after the injury, versus vehicle, orally 5 mg/kg): 34.7%
expression of PPARδ target genes (PDK4, CPT1b, and catalase) in TA by QPCR ([1]; 9 day treatment, orally 5 mg/kg): Up-regulation
myoblast proliferation (BrdU positive nuclei) ([1]; BrdU injection at 48 hours after the injury): promoted myoblast proliferation
increase in the number of quiescent satellite cells ([1]; after 9 days or 4 weeks of ligand treatment): not observed
Evans Blue dye uptake, proportion of muscle cross sectional area (CSA) stained ([1]; orally 5 mg/kg for 4 days prior to and 5 days after injury, 5 days after the injury, vehicle 7.6%): 4.9%
FGF1a promoter luciferase reporter activity (FGF1a promoter): induction of FGF1a
